Reference: patent publication US20120010075A1 (priority 2009, published 2012)
Read-outs that look alike come from different tables or passages of the source.

Tested on: Phytophthora infestans
Format: in vivo, Phytophthora infestans on tomato (Outdoor Girl)
[1] = hydrazone 200 μM + CuCl2 200 μM
[2] = hydrazone 200 μM + CuCl2 400 μM
[3] = hydrazone 200 μM + CuCl2 800 μM
[4] = hydrazone 200 μM + CuSO4 200 μM
[5] = hydrazone 200 μM + CuSO4 400 μM
[6] = hydrazone 200 μM + CuSO4 800 μM
[7] = hydrazone 400 μM + CuCl2 200 μM
[8] = hydrazone 400 μM + CuCl2 400 μM
[9] = hydrazone 400 μM + CuCl2 800 μM
[10] = hydrazone 400 μM + CuSO4 200 μM
[11] = hydrazone 400 μM + CuSO4 400 μM
[12] = hydrazone 400 μM + CuSO4 800 μM

For `O=C(N/N=C/c1cc(Cl)cc(Cl)c1O)c1ccccc1` [Example 16], the “% Control of Tomato Late Blight” value (hydrazone 50 μM + CuSO4 50 μM) was 67.7%, the “% Control of Tomato Late Blight, predicted (in brackets, Colby)” value (“% Control … predicted (in brackets, Colby)” below) (hydrazone 50 μM + CuSO4 50 μM) was 15.5% and the “% Control of Tomato Late Blight” value (hydrazone 50 μM + CuSO4 200 μM) was 72.9%. The “% Control … predicted (in brackets, Colby)” value (hydrazone 50 μM + CuSO4 200 μM) was 55.4%, the “% Control of Tomato Late Blight” value (hydrazone 50 μM + CuSO4 400 μM) was 78.0% and the “% Control … predicted (in brackets, Colby)” value (hydrazone 50 μM + CuSO4 400 μM) was 78.8%. For the same molecule, the “% Control of Tomato Late Blight” value (hydrazone 50 μM + CuSO4 800 μM) was 91.6%, the “% Control … predicted (in brackets, Colby)” value (hydrazone 50 μM + CuSO4 800 μM) was 84.8% and the “% Control of Tomato Late Blight” value (hydrazone 50 μM alone, no copper) was 11.3%. For the same molecule, the “% Control of Tomato Late Blight” value (hydrazone 200 μM + CuCl2 10 μM) was 67.8%, the “% Control … predicted (in brackets, Colby)” value (hydrazone 200 μM + CuCl2 10 μM) was 22.7% and the “% Control of Tomato Late Blight” value (hydrazone 200 μM + CuCl2 50 μM) was 96.6%. For the same molecule, the “% Control … predicted (in brackets, Colby)” value (hydrazone 200 μM + CuCl2 50 μM) was 28.1%, the “% Control of Tomato Late Blight” value [1] was 95.8% and the “% Control … predicted (in brackets, Colby)” value [1] was 51.5%. The “% Control of Tomato Late Blight” value [2] was 90.8%, the “% Control … predicted (in brackets, Colby)” value [2] was 65.4% and the “% Control of Tomato Late Blight” value [3] was 96.7%. For the same molecule, the “% Control … predicted (in brackets, Colby)” value [3] was 76.6%, the “% Control of Tomato Late Blight” value (hydrazone 200 μM + CuSO4 10 μM) was 78.0% and the “% Control … predicted (in brackets, Colby)” value (hydrazone 200 μM + CuSO4 10 μM) was 22.7%. The “% Control of Tomato Late Blight” value (hydrazone 200 μM + CuSO4 50 μM) was 81.3%, the “% Control … predicted (in brackets, Colby)” value (hydrazone 200 μM + CuSO4 50 μM) was 25.1% and the “% Control of Tomato Late Blight” value [4] was 93.2%. For the same molecule, the “% Control … predicted (in brackets, Colby)” value [4] was 60.4%, the “% Control of Tomato Late Blight” value [5] was 95.8% and the “% Control … predicted (in brackets, Colby)” value [5] was 81.2%. For the same molecule, the “% Control of Tomato Late Blight” value [6] was 97.5%, the “% Control … predicted (in brackets, Colby)” value [6] was 86.5% and the “% Control of Tomato Late Blight” value (hydrazone 200 μM alone, no copper) was 21.4%. For the same molecule, the “% Control of Tomato Late Blight” value (hydrazone 400 μM + CuCl2 10 μM) was 64.4%, the “% Control … predicted (in brackets, Colby)” value (hydrazone 400 μM + CuCl2 10 μM) was 26.9% and the “% Control of Tomato Late Blight” value (hydrazone 400 μM + CuCl2 50 μM) was 91.7%. For the same molecule, the “% Control … predicted (in brackets, Colby)” value (hydrazone 400 μM + CuCl2 50 μM) was 32.0%, the “% Control of Tomato Late Blight” value [7] was 91.7% and the “% Control … predicted (in brackets, Colby)” value [7] was 54.1%. The “% Control of Tomato Late Blight” value [8] was 99.8%, the “% Control … predicted (in brackets, Colby)” value [8] was 67.3% and the “% Control of Tomato Late Blight” value [9] was 100.0%. The “% Control … predicted (in brackets, Colby)” value [9] was 77.9%, the “% Control of Tomato Late Blight” value (hydrazone 400 μM + CuSO4 10 μM) was 41.5% and the “% Control … predicted (in brackets, Colby)” value (hydrazone 400 μM + CuSO4 10 μM) was 26.9%. For the same molecule, the “% Control of Tomato Late Blight” value (hydrazone 400 μM + CuSO4 50 μM) was 54.5%, the “% Control … predicted (in brackets, Colby)” value (hydrazone 400 μM + CuSO4 50 μM) was 29.2% and the “% Control of Tomato Late Blight” value [10] was 87.2%. The “% Control … predicted (in brackets, Colby)” value [10] was 62.6%, the “% Control of Tomato Late Blight” value [11] was 96.6% and the “% Control … predicted (in brackets, Colby)” value [11] was 82.2%. The “% Control of Tomato Late Blight” value [12] was 98.3%, the “% Control … predicted (in brackets, Colby)” value [12] was 87.3% and the “% Control of Tomato Late Blight” value (hydrazone 400 μM alone, no copper) was 25.7%.
